The text below walks through data of PubChem BioAssay AID1259407 (Chemical Carcinogenesis Research Information System (CCRIS), 2018).

This data set relates to CCRIS mutagenicity, Ames/micronucleus/aberration tests. In words: CCRIS mutagenicity studies. Particulars: Test System: AMES SALMONELLA TYPHIMURIUM, Method: STANDARD PLATE.

Molecules are shown by their SMILES. Activity calls are given as the source filed them. No rule for the calls is given here.

Consider `Cc1cc(N)c(C)c([N+](=O)[O-])c1N`, for which the mutagenic call was “inactive; negative” (Strain/Indicator: TA98, Metabolic Activation: NONE); “active; positive” (Strain/Indicator: TA98, Metabolic Activation: RAT, LIVER, S-9, AROCLOR 1254); “inactive; negative” (Strain/Indicator: TA100, Metabolic Activation: NONE); “inactive; negative” (Strain/Indicator: TA100, Metabolic Activation: RAT, LIVER, S-9, AROCLOR 1254); “inactive; negative” (Strain/Indicator: TA1535, Metabolic Activation: NONE); “inactive; negative” (Strain/Indicator: TA1535, Metabolic Activation: RAT, LIVER, S-9, AROCLOR 1254). In addition, the mutagenic call runs as follows: (Strain/Indicator: TA1537, Metabolic Activation: NONE) “inactive; negative”; (Strain/Indicator: TA1537, Metabolic Activation: RAT, LIVER, S-9, AROCLOR 1254) “inactive; negative”; (Strain/Indicator: TA1538, Metabolic Activation: NONE) “inactive; negative”; (Strain/Indicator: TA1538, Metabolic Activation: RAT, LIVER, S-9, AROCLOR 1254) “active; positive”.
